This is an account of results in ChEMBL document CHEMBL3593218, “4,6-Substituted-1,3,5-triazin-2(1H)-ones as monocyclic catalytic inhibitors of human DNA topoisomerase IIα targeting the ATP binding site” (Bioorg Med Chem, 2015).

As a reminder, the IC50 is the concentration that gives 50% inhibition. A higher IC50 goes with a need for much substance.

Each structure is given as a SMILES string.

The target in this assay is DNA topoisomerase 2-alpha (Homo sapiens, UniProt P11388). The experiment in a line: Inhibition of human DNA topoisomerase IIalpha using plasmid pNO1 as a substrate after 30 mins.
Chain of DNA topoisomerase 2-alpha (P11388 whole entry): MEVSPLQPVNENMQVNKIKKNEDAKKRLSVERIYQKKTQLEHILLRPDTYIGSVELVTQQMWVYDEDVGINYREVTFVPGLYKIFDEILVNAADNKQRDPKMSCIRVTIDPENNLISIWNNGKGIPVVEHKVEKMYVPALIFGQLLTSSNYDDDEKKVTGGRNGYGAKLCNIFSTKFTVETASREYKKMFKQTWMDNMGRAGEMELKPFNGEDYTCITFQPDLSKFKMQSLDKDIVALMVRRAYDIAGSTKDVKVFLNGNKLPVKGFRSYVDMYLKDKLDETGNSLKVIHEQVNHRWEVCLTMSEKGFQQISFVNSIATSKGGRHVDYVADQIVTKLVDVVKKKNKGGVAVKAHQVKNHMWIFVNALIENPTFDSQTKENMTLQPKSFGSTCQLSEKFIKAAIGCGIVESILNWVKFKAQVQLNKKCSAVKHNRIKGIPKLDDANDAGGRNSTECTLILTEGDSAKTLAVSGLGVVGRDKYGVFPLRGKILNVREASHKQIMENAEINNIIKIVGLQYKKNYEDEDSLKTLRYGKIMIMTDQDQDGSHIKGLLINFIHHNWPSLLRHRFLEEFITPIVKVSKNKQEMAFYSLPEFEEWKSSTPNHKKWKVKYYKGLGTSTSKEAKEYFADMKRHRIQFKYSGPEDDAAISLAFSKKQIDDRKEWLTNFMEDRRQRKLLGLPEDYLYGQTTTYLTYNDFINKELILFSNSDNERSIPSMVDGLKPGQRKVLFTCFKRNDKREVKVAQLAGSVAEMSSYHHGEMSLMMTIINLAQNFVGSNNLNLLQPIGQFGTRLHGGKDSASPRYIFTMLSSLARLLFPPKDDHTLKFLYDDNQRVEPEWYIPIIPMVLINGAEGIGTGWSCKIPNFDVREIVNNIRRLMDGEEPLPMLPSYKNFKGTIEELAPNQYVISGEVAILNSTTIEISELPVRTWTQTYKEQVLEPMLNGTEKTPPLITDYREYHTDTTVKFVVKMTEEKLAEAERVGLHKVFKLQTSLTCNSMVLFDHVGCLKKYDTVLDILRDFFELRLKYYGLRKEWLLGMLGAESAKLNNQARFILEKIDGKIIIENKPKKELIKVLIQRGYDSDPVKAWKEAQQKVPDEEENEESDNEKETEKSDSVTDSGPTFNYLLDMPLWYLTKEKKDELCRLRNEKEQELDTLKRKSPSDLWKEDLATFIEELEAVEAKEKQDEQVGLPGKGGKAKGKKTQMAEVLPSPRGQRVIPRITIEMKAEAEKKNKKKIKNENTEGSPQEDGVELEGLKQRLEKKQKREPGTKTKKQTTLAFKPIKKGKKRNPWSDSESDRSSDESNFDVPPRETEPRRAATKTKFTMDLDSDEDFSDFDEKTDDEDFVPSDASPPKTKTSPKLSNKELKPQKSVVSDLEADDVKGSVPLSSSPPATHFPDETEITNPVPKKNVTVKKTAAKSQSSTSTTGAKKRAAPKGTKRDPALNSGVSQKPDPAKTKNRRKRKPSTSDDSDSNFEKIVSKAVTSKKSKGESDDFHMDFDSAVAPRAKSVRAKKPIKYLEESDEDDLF
Turning to `COc1nc(OC)nc(Sc2ccccc2C(=O)N[C@H](CCC(=O)OCc2ccccc2)C(=O)OCc2ccccc2)n1`, the IC50 was above 1 mM.

In turn, `O=c1nc(SCc2ccccc2)nc(SCC2CC2)[nH]1` showed an IC50 of 0.481 mM. The figure for `COc1ccccc1CSc1nc(SCc2ccccc2)nc(=O)[nH]1` is above 1 mM; for `Clc1nc(Cl)nc(Nc2ccccc2Br)n1` it is above 1 mM; for `COC(=O)c1ccccc1Nc1nc(Cl)nc(Cl)n1` it is above 1 mM. For the molecule `O=C1NC(SCc2ccccc2)=NC(Sc2ccccc2)N1` (stereo not drawn), the IC50 was above 1 mM.

Consider `O=C(O)CSC1N=C(SCc2ccccc2)NC(=O)N1` (stereo not drawn), for which the IC50 is above 1 mM. Regarding `COc1nc(OC)nc(Sc2ccccc2C(=O)O)n1`, the IC50 is above 1 mM. On to `N#Cc1cccc(CSc2nc(SCc3ccccc3)nc(=O)[nH]2)c1`, for which the midpoint of inhibition, the IC50, lay at 0.528 mM.

In the case of `COc1nc(N[C@H](CCC(=O)OCc2ccccc2)C(=O)OCc2ccccc2)nc(OC)n1`, the IC50 is above 1 mM. In the case of `COc1ccc(CCNc2nc(Cl)nc(Cl)n2)cc1OC`, the IC50 is above 1 mM. Consider `Cc1ccc(-c2nc(S)[nH]c(=O)n2)cc1`, for which the IC50 is above 1 mM. `COc1nc(N[C@H](CCC(=O)O)C(=O)O)nc(OC)n1`: the 50% inhibitory concentration (IC50) is above 1 mM. The figure for `O=c1nc(SCc2ccccc2)nc(SCc2cccc([N+](=O)[O-])c2)[nH]1` is 0.488 mM; for `OCCc1ccccc1Nc1nc(Cl)nc(Cl)n1` it is above 1 mM; for `OCCc1ccccc1Nc1nc(Cl)nc(NCc2ccccc2)n1` it is above 1 mM.

`O=c1nc(SCc2ccccc2)nc(SCC2CCCCC2)[nH]1` displayed an IC50 above 1 mM.

As to `CC(C)(C)c1ccccc1Nc1nc(Cl)nc(Cl)n1`, the IC50 is above 1 mM. As for `COc1nc(Nc2ccccc2C(=O)O)nc(OC)n1`, the figure is above 1 mM; as for `O=c1nc(SCc2ccccc2)nc(S)[nH]1`, above 1 mM; as for `COc1ccc(CNc2nc(Cl)nc(N(C)CCO)n2)cc1`, above 1 mM. The figure for `O=c1nc(SCc2ccccc2)nc(SCc2ccc(Cl)cc2)[nH]1` is 0.219 mM. As for `Nc1ccc(-c2nc(=S)[nH]c(=O)[nH]2)cc1`, the figure is above 1 mM.

On to `O=c1nc(-c2cccc([N+](=O)[O-])c2)nc(S)[nH]1`, for which the IC50 was above 1 mM.

For the molecule `O=C(O)c1ccccc1Sc1nc(Cl)nc(Cl)n1`, the IC50 is above 1 mM. As for `N#Cc1ccccc1CSc1nc(SCc2ccccc2)nc(=O)[nH]1`, inhibition was half-maximal at 0.522 mM (IC50). As for `O=c1nc(SCc2ccccc2)nc(SCc2ccc(F)cc2)[nH]1`, the IC50 was 0.147 mM. On to `COc1ccc(CSc2nc(SCc3ccccc3)nc(=O)[nH]2)cc1`, for which the concentration for half-maximal inhibition (IC50) was above 1 mM. The figure for `CCc1ccccc1Nc1nc(Cl)nc(Cl)n1` is above 1 mM. For `N#Cc1ccc(CSc2nc(SCc3ccccc3)nc(=O)[nH]2)cc1`, the IC50 is 0.153 mM.

`COc1ccc(CNc2nc(Cl)nc(Cl)n2)cc1` yielded a half-maximal inhibitory concentration (IC50) above 1 mM.

`O=c1nc(SCc2ccccc2)nc(SCc2ccc([N+](=O)[O-])cc2)[nH]1`: the IC50 is 0.359 mM.

As for `O=c1nc(SCc2ccccc2)nc(SCc2ccccc2[N+](=O)[O-])[nH]1`, the IC50 came to 0.377 mM. Regarding `CC(C)OC(=O)C(C)NC(=O)c1ccc(Nc2nc(Cl)nc(Cl)n2)cc1` (stereo not drawn), the IC50 was above 1 mM. Turning to `COc1cccc(CSc2nc(SCc3ccccc3)nc(=O)[nH]2)c1`, the IC50 is 0.485 mM. `CCCCSc1nc(SCc2ccccc2)nc(=O)[nH]1` yielded an IC50 of 0.235 mM. As to `COC(=O)c1ccccc1Oc1nc(OC)nc(OC)n1`, the IC50 was above 1 mM. In turn, `N#Cc1ccc(CSc2nc(SCc3ccccc3)nc(=O)[nH]2)c(F)c1` gave a half-inhibitory concentration (IC50) of 0.486 mM. `O=c1nc(SCc2ccccc2)nc(SCC2CCC2)[nH]1` yielded an IC50 above 1 mM. `CN(CCO)c1nc(Cl)nc(Nc2ccccc2CCO)n1` showed an IC50 above 1 mM. The figure for `COc1ccc(CNc2nc(Cl)nc(Nc3ccccc3CCO)n2)cc1` is above 1 mM; for `CCCSc1nc(SCc2ccccc2)[nH]c(=O)n1` it is above 1 mM; for `COc1nc(Nc2ccccc2C(=O)N[C@@H](C)C(=O)OCc2ccccc2)nc(N[C@@H](C)C(=O)OCc2ccccc2)n1` it is above 1 mM.
